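Growth conditions: 96-well plates. Treatment: test compound, 48 hours, 5 concentrations. Analysis: linear interpolation between bracketing concentrations; unreached endpoints set to highest concentration. The concentration for 50% growth inhibition is given as GI50. The concentration for full growth arrest is given as TGI.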

Results on 7 molecules are retold here after PubChem BioAssay (NCI).

Test systems include ACHN renal; CAKI-1 renal; DU-145 prostate; HS 578T breast; KM12 colon; OVCAR-3 ovarian; SF-268 CNS; SF-539 CNS; SK-OV-3 ovarian; UO-31 renal.
Assay in all cases: growth of human tumour cells (NCI), 48 h

As to `CNc1ccccc1C(=O)N/N=C/C=C/c1ccccc1`, the GI50 in the test with ACHN renal was 11.8 µM; in the test with CAKI-1 renal it was 2.79 µM; with DU-145 prostate it was 3.47 µM; in the test with HS 578T breast it was 1.97 µM; in the test with KM12 colon, 0.547 µM; in the test with OVCAR-3 ovarian, 0.563 µM. Further, the GI50 is 7.23 µM with SF-268 CNS, 1.09 µM in the test on SF-539 CNS, 4.15 µM with SK-OV-3 ovarian and 8.08 µM in the test on UO-31 renal. Further, the TGI with ACHN renal was greater than 100 µM; in the test on CAKI-1 renal it was greater than 100 µM; in the test on DU-145 prostate, greater than 57.6 µM; in the test on HS 578T breast it was greater than 100 µM; with KM12 colon, 50.5 µM; in the test on OVCAR-3 ovarian it was greater than 100 µM. Further, the TGI in the test with SF-268 CNS is greater than 100 µM; in the test on SF-539 CNS, 4.91 µM; in the test on SK-OV-3 ovarian, greater than 100 µM; with UO-31 renal, 97.9 µM.

Regarding `CCN1C(=O)C/C(=C\C(C)=O)Nc2ccccc21`, the GI50 with ACHN renal, with DU-145 prostate and in the test on HS 578T breast was greater than 100 µM throughout. For the same molecule, the TGI in the test with ACHN renal, in the test on CAKI-1 renal, with DU-145 prostate, in the test on HS 578T breast, with KM12 colon and in the test on OVCAR-3 ovarian was greater than 100 µM in each case. Also, the TGI in the test with SF-268 CNS, in the test with SF-539 CNS, in the test on SK-OV-3 ovarian and with UO-31 renal was greater than 100 µM throughout.

In the case of `COc1cccc(-c2nn(-c3ccccc3)cc2-c2ccnc(NCCNS(=O)(=O)c3ccc(Cl)cc3)c2)c1`, the GI50 with ACHN renal is 4.56 µM; with CAKI-1 renal, 5.61 µM; in the test with DU-145 prostate, 7.55 µM; with HS 578T breast it was 5.73 µM; in the test on KM12 colon it was 3.72 µM; with OVCAR-3 ovarian, 4.32 µM. Also, the GI50 was 5.49 µM with SF-268 CNS, 7.35 µM in the test with SF-539 CNS, 4.43 µM in the test with SK-OV-3 ovarian and 2.9 µM in the test on UO-31 renal. Further, the TGI with ACHN renal, in the test with CAKI-1 renal, in the test on DU-145 prostate, in the test with HS 578T breast, in the test with KM12 colon and in the test with OVCAR-3 ovarian was greater than 100 µM in each case. Besides, the TGI in the test with SF-268 CNS, with SF-539 CNS, with SK-OV-3 ovarian and in the test on UO-31 renal was greater than 100 µM each time.

Take `C[Si](C)(C)C#CCO[Si](C)(C)C`: the TGI with ACHN renal was greater than 100 µM; in the test with CAKI-1 renal, greater than 100 µM; in the test with DU-145 prostate, greater than 100 µM; in the test on HS 578T breast, greater than 100 µM; in the test on KM12 colon, greater than 89.3 µM; in the test on OVCAR-3 ovarian, greater than 100 µM. Also, the TGI in the test with SF-268 CNS was greater than 89.3 µM; with SF-539 CNS it was 52.3 µM; in the test on SK-OV-3 ovarian, greater than 100 µM; in the test on UO-31 renal it was greater than 100 µM.

`COc1ccc(C(=O)Cn2c(C(=O)c3ccc(OC)cc3)nc3ccccc32)cc1`: the GI50 is 6.58 µM in the test with ACHN renal; 1.94 µM in the test with CAKI-1 renal; 4.31 µM with DU-145 prostate; 2.14 µM in the test with HS 578T breast; 1.16 µM in the test with KM12 colon; 2.03 µM with OVCAR-3 ovarian. In addition, the GI50 in the test on SF-268 CNS was 6.25 µM; in the test on SF-539 CNS, 2.8 µM; in the test with SK-OV-3 ovarian, 2.96 µM; with UO-31 renal it was 6.27 µM. In addition, the TGI in the test with ACHN renal was greater than 100 µM; in the test on CAKI-1 renal, greater than 100 µM; in the test on DU-145 prostate, greater than 100 µM; with HS 578T breast, greater than 28.5 µM; in the test on KM12 colon, greater than 100 µM; in the test with OVCAR-3 ovarian it was greater than 100 µM. Further, the TGI with SF-268 CNS, in the test with SF-539 CNS, with SK-OV-3 ovarian and in the test on UO-31 renal was greater than 100 µM each time.

`CS(=O)(=O)c1ccc(Oc2cc(F)cc(C#N)c2)c2c1[C@H](O)[C@H](F)[C@@H]2F`: the GI50 with ACHN renal, in the test on CAKI-1 renal, in the test with DU-145 prostate, with HS 578T breast, with KM12 colon and with OVCAR-3 ovarian was greater than 100 µM in each case. Also, the GI50 in the test with SF-268 CNS, in the test on SF-539 CNS, with SK-OV-3 ovarian and with UO-31 renal was greater than 100 µM throughout. The TGI in the test with ACHN renal, with CAKI-1 renal, in the test with DU-145 prostate, in the test on HS 578T breast, in the test on KM12 colon and with OVCAR-3 ovarian was greater than 100 µM in each case. The TGI with SF-268 CNS, with SF-539 CNS, in the test on SK-OV-3 ovarian and in the test on UO-31 renal was greater than 100 µM in each case.

Take `Nc1c(C(=O)Nc2ccccc2)sc2nc3c(cc12)CCCCCC3`: the GI50 in the test with ACHN renal is 0.887 µM; in the test on CAKI-1 renal, 0.526 µM; with DU-145 prostate, 0.445 µM; with HS 578T breast, 0.529 µM; with KM12 colon it was 0.398 µM; in the test with OVCAR-3 ovarian, 0.319 µM. Further, the GI50 in the test with SF-268 CNS is 1.14 µM; with SF-539 CNS, 0.231 µM; in the test with SK-OV-3 ovarian, 0.465 µM; with UO-31 renal, 0.945 µM. The TGI in the test on ACHN renal amounted to 14 µM; in the test with CAKI-1 renal it was 16 µM; in the test on DU-145 prostate it was 12.3 µM; in the test with HS 578T breast, 9.64 µM; in the test with KM12 colon, 17.6 µM; in the test with OVCAR-3 ovarian, 1.07 µM. The TGI with SF-268 CNS came out at 20.1 µM; in the test with SF-539 CNS, 0.741 µM; in the test on SK-OV-3 ovarian, 3 µM; in the test on UO-31 renal it was 11.9 µM.
